Source: patent US20040067932A1 (priority 2002, published 2004)
≈ marks a conversion by molar mass, not a printed value. Like-named read-outs stand apart in the source and are kept apart here.

How the values were obtained:
rA1 adenosine receptor = target: T1, rA1 adenosine receptor (Rattus norvegicus, UniProt P25099); test: Binding affinity at rA1 adenosine receptor
T1 sequence (P25099 1-326): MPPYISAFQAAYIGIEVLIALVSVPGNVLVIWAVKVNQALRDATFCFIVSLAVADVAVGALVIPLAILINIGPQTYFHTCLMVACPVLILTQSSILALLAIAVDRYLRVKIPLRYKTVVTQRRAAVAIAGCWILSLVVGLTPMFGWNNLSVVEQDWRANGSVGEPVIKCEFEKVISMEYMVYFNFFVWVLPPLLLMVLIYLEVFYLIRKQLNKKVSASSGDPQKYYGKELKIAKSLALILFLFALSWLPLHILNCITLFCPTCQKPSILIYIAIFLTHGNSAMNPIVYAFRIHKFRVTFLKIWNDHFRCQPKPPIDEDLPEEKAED

rA2A adenosine receptor = rA2A adenosine receptor (Rattus norvegicus, UniProt P30543); test: Binding affinity at rA2A adenosine receptor
Sequence of rA2A adenosine receptor (P30543 whole entry): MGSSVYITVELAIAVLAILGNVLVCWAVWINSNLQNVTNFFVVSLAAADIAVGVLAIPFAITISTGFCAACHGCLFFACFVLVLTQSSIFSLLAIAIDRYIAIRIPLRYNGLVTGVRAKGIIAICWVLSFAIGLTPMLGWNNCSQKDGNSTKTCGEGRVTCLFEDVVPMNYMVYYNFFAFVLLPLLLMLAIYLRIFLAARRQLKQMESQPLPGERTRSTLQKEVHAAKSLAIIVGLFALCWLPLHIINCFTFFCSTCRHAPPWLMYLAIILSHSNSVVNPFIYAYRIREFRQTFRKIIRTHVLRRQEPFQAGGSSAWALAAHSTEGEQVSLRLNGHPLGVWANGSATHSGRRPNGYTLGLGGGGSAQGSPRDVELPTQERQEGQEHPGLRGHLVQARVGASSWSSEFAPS

A375 cells = test: Flow cytometry (PI) G2/M accumulation and sub-G1 apoptosis, A375; format: cell-based, human
Experimental: (§1) A375 and NCTC2544 adherent cells were trypsinized, mixed with floating cells, washed with PBS and permeabilised in 70% (vol/vol) ethanol/PBS solution at 4° C. for at least 24 hours. Jurkat, HeL023 and PBMC cells were centrifuged for 10 minutes at 1000×g. The cell pellet was then resuspended and permeabilised in 70% (vol/vol) ethanol/PBS solution at 4° C. for at least 24 hours. The cells were washed with PBS and the DNA was stained with a PBS solution, containing 20 μg/ml of propidium iodide and 100 μg/ml of RNAse, at room temperature for 30 minutes. Cells were analysed by FACScan (Becton-Dickinson) and the content of DNA was evaluated by the Cell-LISYS program (Becton-Dickinson). Cell distribution among cell cycle phases and apoptotic cells was evaluated as previously described (Secchiero et al., 2001). Briefly, the cell cycle distribution is shown as the percentage of cells containing 2n (G1 phase), 4n (G2 and M phases), 4n>x>2n. DNA amount (S phase) judged by propidium iodide staining. The apoptotic population is the percentage of cells with DNA content lower than 2n.
Cell proliferation and apoptosis are quantified by flow cytometer analysis after propidium-iodide (PI) DNA staining.

[1] = test system: human lung carcinoma SKMES; test: MTT growth inhibitory assay, SKMES; format: cell-based
Experimental: (§3) One of the growth inhibitory assays is the MTT assay. Cells (1000-1500 cells/well) are seeded in a 96-well micro culture plate in a total volume of 100 μl/well. After overnight incubation in a humidified incubator at 37° C. with 5% CO2-95% air, chemotherapeutic drug solutions diluted with culture medium at various concentrations are added in the amount of 100 μl to each well. The plates are placed in a humidified incubator at 37° C. with 5% CO2-95% air for 7-10 days. The plates are then centrifuged briefly and 100 μl of the growth medium is removed. Cell cultures are incubated with 50 μl of MTT [3-(4,5-dimethylthiazol-2-yl)-2,5-diphenyl-tetrazolium bromide] reagent (1 mg/ml in Dulbecco's phosphate-buffered saline) for 4 hr at 37° C. The resultant purple formazan precipitate is solubilized with 200 μl of 0.04 N HCl in isopropanol. Absorbance is measured at a wavelength of 595 nm and at a reference wavelength of 655 nm using a Bio-Rad Model 3550 Microplate Reader. Preferably, all tests are run in duplicate for each dose level.
(§4) The EZED50 computer program estimates the concentration of agent that inhibits cell growth by 50% as compared to the control cells. This is termed the IC50 and is determined by curve fitting test data using the following four logistic equation. [formula]
(§5) Inhibitory assay testing is also used to determine enhanced therapeutic effects from combining A3 receptor antagonists with other tumor inhibiting agents. The inhibitory cell growth assays are run with and without selected concentrations of A3 receptor antagonists. An enhanced therapeutic effect is present when the IC50 of the tumor inhibiting agent is lower with the A3 receptor antagonist.
(§6) Quantitatively, the enhancement factor (EF) is calculated by dividing the IC50 value of the tumor inhibiting agent for a tumor cell line by the IC50 value of the agent with A3 receptor antagonist for the same cell line: [formula]

[2] = test system: human melanoma A375 cell line; test: MTT growth inhibitory assay, A375; format: cell-based
Experimental: as §3, §4, §5, §6

[3] = test system: human colon carcinoma HT29 cell line; test: MTT growth inhibitory assay, HT29; format: cell-based; conditions: for IC50: HT-29
Experimental: as §3, §4, §5, §6

[4] = test system: human pancreatic cancer Panc-1; test: MTT growth inhibitory assay, Panc-1; format: cell-based
Experimental: as §3, §4, §5, §6

[5] = target: T2, P-gp drug efflux activity in HeL023 cells (Homo sapiens, UniProt P08183); test: Rhodamine 123 efflux assay, HeL023 cells; format: cell-based; conditions: Rh123 efflux, concentrations of Table 11 (MRE3008F20 10 μM)
T2 construct: nearly all (100±1%) the cells expressing high level of functional P-gp; endogenous in cells; host or cells: HeL023 human erythroleukemia cells
T2 sequence (P08183 whole entry): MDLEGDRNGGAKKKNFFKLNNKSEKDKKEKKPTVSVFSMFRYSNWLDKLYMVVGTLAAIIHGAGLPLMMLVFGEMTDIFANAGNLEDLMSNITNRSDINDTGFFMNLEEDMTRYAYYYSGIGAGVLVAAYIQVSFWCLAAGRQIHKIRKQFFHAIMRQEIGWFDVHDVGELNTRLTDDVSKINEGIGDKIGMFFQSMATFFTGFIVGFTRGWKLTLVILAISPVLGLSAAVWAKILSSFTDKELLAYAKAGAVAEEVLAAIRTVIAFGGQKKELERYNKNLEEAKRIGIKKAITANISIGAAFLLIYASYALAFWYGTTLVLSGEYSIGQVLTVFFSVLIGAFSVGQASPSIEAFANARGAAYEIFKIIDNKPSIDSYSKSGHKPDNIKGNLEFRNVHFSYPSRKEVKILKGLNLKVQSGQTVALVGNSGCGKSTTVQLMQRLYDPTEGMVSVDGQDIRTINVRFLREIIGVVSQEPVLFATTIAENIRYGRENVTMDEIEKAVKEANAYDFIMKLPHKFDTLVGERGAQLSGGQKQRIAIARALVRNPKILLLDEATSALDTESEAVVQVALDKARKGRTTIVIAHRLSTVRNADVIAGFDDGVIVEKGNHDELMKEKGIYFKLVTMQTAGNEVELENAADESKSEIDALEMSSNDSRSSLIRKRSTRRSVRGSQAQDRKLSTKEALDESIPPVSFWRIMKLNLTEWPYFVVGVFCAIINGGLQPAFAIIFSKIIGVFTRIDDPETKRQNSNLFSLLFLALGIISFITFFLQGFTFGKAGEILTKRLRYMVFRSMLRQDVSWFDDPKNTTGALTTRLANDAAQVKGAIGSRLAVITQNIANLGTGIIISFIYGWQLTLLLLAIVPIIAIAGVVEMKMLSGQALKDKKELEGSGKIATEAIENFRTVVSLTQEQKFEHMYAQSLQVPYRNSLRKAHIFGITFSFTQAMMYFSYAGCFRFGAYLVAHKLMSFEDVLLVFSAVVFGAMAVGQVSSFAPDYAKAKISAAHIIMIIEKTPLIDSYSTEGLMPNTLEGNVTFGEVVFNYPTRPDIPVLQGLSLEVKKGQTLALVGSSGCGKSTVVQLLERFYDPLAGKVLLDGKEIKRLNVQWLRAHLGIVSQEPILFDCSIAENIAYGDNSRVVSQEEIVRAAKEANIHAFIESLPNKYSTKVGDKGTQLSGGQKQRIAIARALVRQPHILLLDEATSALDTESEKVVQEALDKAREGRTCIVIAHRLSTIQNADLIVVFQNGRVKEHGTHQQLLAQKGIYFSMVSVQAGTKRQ
Experimental: 5×10^5 cells from each subline were loaded with 50 ng/ml of rhodamine 123 for 30 minutes at 37° C. in medium. The cells were washed and resuspended in dye-staining agent free medium for 3 hours at 37° C. to allow rhodamine 123 efflux. The cells were then washed twice and the fluorescence of intracellular rhodamine 123 were analysed with Flow cytometer (residual fluorescence FRES). The fluorescence was compared with loaded cells maintained at 4° C. to prevent drug export (maximal fluorescence FMAX). […] Cells from each subline that were not being exposed to rhodamine 123 were used as negative controls.
Rhodamine 123 (Rh123) retention, a P-gp functional assay, was studied in all cell lines. This assay was performed by incubating cells with Rh123 and determining Rh123 accumulation by measuring its fluorescence. The maximum load of Rh123 (FMAX) was quantified at the end of treatment harvesting the cells and storing them at 4° C. to prevent any active Rh123 efflux . The P-gp drug efflux was allowed incubating Rh123-loaded cells in fresh new medium Rh123-free for 3 hours at 37° C. After this incubation, residual fluorescence (FRES) was measured and compared to FMAX.

[6] = target: T3, human A3 adenosine receptor (Homo sapiens, UniProt P0DMS8); conditions: read-out: Ki (binding affinity at human A3 adenosine receptor); A375 cells
T3 sequence (P0DMS8 1-318): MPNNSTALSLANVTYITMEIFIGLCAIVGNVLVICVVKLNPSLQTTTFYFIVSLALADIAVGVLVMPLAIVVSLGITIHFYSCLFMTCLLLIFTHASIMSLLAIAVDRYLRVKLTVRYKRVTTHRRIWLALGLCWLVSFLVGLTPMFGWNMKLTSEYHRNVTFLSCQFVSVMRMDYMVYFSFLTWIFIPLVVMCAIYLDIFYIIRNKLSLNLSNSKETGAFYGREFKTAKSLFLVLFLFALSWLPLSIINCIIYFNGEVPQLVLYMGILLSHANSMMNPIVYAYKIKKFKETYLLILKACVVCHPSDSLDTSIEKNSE

A375 melanoma cells = test: Colony formation assay of A375 cells; format: cell-based, human; conditions: paclitaxel 0.75 ng/ml alone, 7 days
Experimental: FIG. 2 illustrates colony formation assay of A375 cells. Cells were treated with different drugs and colonies were counted after 7 days. The values represent the mean ±SEM of four independent experiments. D=DMSO (control); T=paclitaxel, 0.75 ng/ml; M=MRE 3008F20, 10 μM; C=CI-IB-MECA, 10 μM; TM=paclitaxel plus MRE 3008F20; TC=paclitaxel plus CI-IB-MECA treated cells. *P<0.01 TM versus T. Analysis was by ANOVA followed by Dunnett's test.;
Control plates received the same volume of DMSO alone. After 7 days of growth at 37° C. in humidified atmosphere containing 5% CO2, the cells were fixed with absolute methanol for 5′ and stained with 1/10 Giemsa/phosphate-buffered saline (PBS) staining solution for 10 minutes. Staining solution was removed and colonies of greater than 30 cells were scored as survivors. For each treatment, six individual wells were scored.
Colony formation assay experiments were performed on A375 melanoma cells treated with increasing concentration of paclitaxel (0.25-75 ng/ml). A3 stimulation is achieved with the selective agonist CI-IB-MECA while A3 blockade is obtained with the selective antagonist MRE 3008F20. […] (FIG. 2)

NCTC2544 cells = test: Flow cytometry (PI) G2/M accumulation and sub-G1 apoptosis, NCTC2544; format: cell-based, human; conditions: NCTC 2544, DMSO (no antagonist)
Experimental: as §1
(§2) To verify the role of A3 receptor antagonists on paclitaxel and vindesine mediated alteration of cell proliferation and apoptosis, testing was performed with additional cell lines. […] Experimental conditions are similar to those for the A375 cell testing.

HeL023 cells = test: Flow cytometry (PI) G2/M accumulation and sub-G1 apoptosis, HeL023; format: cell-based, human; conditions: DMSO (no antagonist)
Experimental: as §1, §2

Jurkat cells = test: Flow cytometry (PI) G2/M accumulation and sub-G1 apoptosis, Jurkat; format: cell-based, human; conditions: DMSO (no antagonist)
Experimental: as §1, §2

PBMC blasts = test: Flow cytometry (PI) G2/M accumulation, PBMC blasts; format: cell-based; conditions: Homo sapiens, DMSO (no antagonist), read-out: paclitaxel EC50 (G2/M accumulation)
Experimental: Cells are passaged two or three times weekly at a ratio between 1:5 and 1:10. Lymphocytes were isolated from buffy coats kindly provided by the Blood Bank of the University Hospital of Ferrara. Blood donated by healthy volunteers, after informed consent for research was obtained. Lymphocytes were isolated by density gradient centrifugation (Ficoll/Histopaque 1.077 g/ml). The cells are stimulated with purified phytohemoagglutinin (1 μg/ml) and expanded in RPMI medium added of interleukin 2 (20 Units/ml) and 10% fetal calf serum.
Jurkat, HeL023 and PBMC cells were centrifuged for 10 minutes at 1000×g. The cell pellet was then resuspended and permeabilised in 70% (vol/vol) ethanol/PBS solution at 4° C. for at least 24 hours. The cells were washed with PBS and the DNA was stained with a PBS solution, containing 20 μg/ml of propidium iodide and 100 μg/ml of RNAse, at room temperature for 30 minutes. Cells were analysed by FACScan (Becton-Dickinson) and the content of DNA was evaluated by the Cell-LISYS program (Becton-Dickinson). Cell distribution among cell cycle phases and apoptotic cells was evaluated as previously described (Secchiero et al., 2001). Briefly, the cell cycle distribution is shown as the percentage of cells containing 2n (G1 phase), 4n (G2 and M phases), 4n>x>2n. DNA amount (S phase) judged by propidium iodide staining. […]

[7] = Human Lung Carcinoma SKMES, read-out: IC50 growth inhibition, agent used separately
[8] = Homo sapiens, A-375, Human Melanoma A375, read-out: IC50 growth inhibition, agent used separately
[9] = Human Colon Carcinoma HT29, read-out: IC50 growth inhibition, agent used separately
[10] = Human Pancreatic Cancer Panc-1, read-out: IC50 growth inhibition, agent used separately
[11] = Panc-1, A3 antagonist 0.5 μg/ml
[12] = Homo sapiens, read-out: paclitaxel EC50 (G2/M accumulation)

## CCN(CC)c1ccc(NC(=O)Nc2nc3nn(C)cc3c3nc(-c4ccco4)nn23)cc1 [IL-10, N-1-(4-diethylamino-phenyl)-N′-5-[8-methyl-2-(2-furyl)-pyrazolo[4 ,3-e]1,2,4-triazolo[1,5-c]pyrimidine]-urea]
rA1 adenosine receptor
  Ki: 580 nM
rA2A adenosine receptor
  Ki: 523 nM
A375 cells; Homo sapiens, A-375, A375, vindesine 1 nM, G2/M accumulation dose response curve, read-out: SEC50 (dose inducing 50% of the enhancing activity to vindesine)
  EC50: 970 ± 100 nM
[1]; [7]
  IC50: 5900 ± 300 ng/mL (≈ 13200 nM)
[1]; SKMES, A3 antagonist 0.5 μg/ml
  Enhancement Factor for docetaxel: 2.8
  Enhancement Factor for irinotecan HCL: 1.7
  Enhancement Factor for paclitaxel: 2.8
  Enhancement Factor for vinblastine: 1.4
[2]; A375, A3 antagonist 0.5 μg/ml
  Enhancement Factor for docetaxel: 8.4
  Enhancement Factor for paclitaxel: 3.7
[2]; A375, A3 antagonist 5 μg/ml
  Enhancement Factor for docetaxel: 2.9
[2]; A375, A3 antagonist 5 μg/ml, paclitaxel 0.0001-0.05 μg/ml
  Enhancement Factor for paclitaxel: 8.8
[2]; A375, A3 antagonist 5 μg/ml, paclitaxel 0.0002-0.1 μg/ml
  Enhancement Factor for paclitaxel: 9.2
[2]; [8]
  IC50: 11900 ± 400 ng/mL (≈ 26700 nM)
[2]; Homo sapiens, A-375, A375, 5 μg/ml, read-out: growth inhibition in the presence of A3 antagonist alone
  inhibition at 5 µg/mL: 30 to 45%
[3]; HT29, A3 antagonist 0.5 μg/ml
  Enhancement Factor for docetaxel: 5.5
  Enhancement Factor for doxorubicin: 1.5
  Enhancement Factor for irinotecan HCl: 1.2
  Enhancement Factor for paclitaxel: 2.5
[3]; [9]
  IC50: 10000 ± 700 ng/mL (≈ 22400 nM)
[4]; [10]
  IC50: 3900 ± 3300 ng/mL (≈ 8750 nM)
[4]; [11]
  Enhancement Factor for docetaxel: 1.4
  Enhancement Factor for paclitaxel: 1.7
[5]
  inhibition of P-gp activity (in words): strong inhibitors of P-gp activity

## CCCCn1cc2c(nc(NC(=O)Nc3ccccc3)n3nc(-c4ccco4)nc23)n1 [MRE 3062F20, 5-N-(4-phenyl-carbamoyl)amino-8-butyl-2 (2furyl)-pyrazolo-[4,3e]-1,2,4triazolo[1,5-c]pyrimidine]
A375 cells; A375, vindesine 1 nM, G2/M accumulation dose response curve, read-out: SEC50 (dose inducing 50% of the enhancing activity to vindesine)
  EC50: 430 ± 40 nM
[6]
  Ki: 2.3 ± 0.2 nM
[5]
  inhibition of P-gp activity (in words): strong inhibitors of P-gp activity

## CC(=O)O[C@H]1C(=O)[C@@]2(C)[C@H]([C@H](OC(=O)c3ccccc3)[C@]3(O)C[C@H](OC(=O)[C@H](O)[C@@H](NC(=O)c4ccccc4)c4ccccc4)C(C)=C1C3(C)C)[C@]1(OC(C)=O)CO[C@@H]1C[C@@H]2O [paclitaxel]
A375 melanoma cells
  colony formation, % of the control: 64%
NCTC2544 cells; [12]
  EC50: 2.69 ± 0.28 ng/mL (≈ 3.15 nM)
NCTC2544 cells
  paclitaxel ECMAX (sub-G1): 2.69 ± 0.23 ng/mL
HeL023 cells
  paclitaxel ECMAX (sub-G1): 33.42 ± 3.55 ng/mL
HeL023 cells; [12]
  EC50: 50.6 ± 5.3 ng/mL (≈ 59.3 nM)
Jurkat cells
  paclitaxel ECMAX (sub-G1): 3.32 ± 0.52 ng/mL
Jurkat cells; [12]
  EC50: 2.96 ± 0.31 ng/mL (≈ 3.47 nM)
A375 cells; A375, DMSO (no antagonist)
  paclitaxel ECMAX (sub-G1, maximal apoptosis): 6.00 ± 0.63 ng/mL
A375 cells; Homo sapiens, A-375, 24 h, read-out: paclitaxel EC50 (G2/M accumulation)
  EC50: 16.6 ± 2 ng/mL
PBMC blasts
  EC50: 5.3 ± 0.6 ng/mL (≈ 6.21 nM)
[1]; Homo sapiens, SKMES, paclitaxel 0.0001-0.05 μg/ml, alone, read-out: IC50 of paclitaxel, A3 antagonist none
  IC50: 3.3 ng/mL (≈ 3.86 nM)
[1]; [7]
  IC50: 2.6 ± 0.7 ng/mL (≈ 3.04 nM)
[2]; A375, paclitaxel 0.0001-0.05 μg/ml, alone (control of each antagonist series)
  IC50 of paclitaxel, A3 antagonist none: 4.2 ng/mL
[2]; Homo sapiens, A-375, A375, paclitaxel 0.0001-0.05 μg/ml, alone (control of each antagonist series), read-out: IC50 of paclitaxel, A3 antagonist none
  IC50: 4.4 ng/mL (≈ 5.15 nM)
[2]; Homo sapiens, A-375, A375, paclitaxel 0.0002-0.1 μg/ml, alone, read-out: IC50 of paclitaxel, A3 antagonist none
  IC50: 4.6 ng/mL (≈ 5.39 nM)
[2]; [8]
  IC50: 4 ± 0.2 ng/mL (≈ 4.68 nM)
[3]; [9]
  IC50: 1.12 ± 0.3 ng/mL (≈ 1.31 nM)
[3]; Homo sapiens, HT29, paclitaxel 0.0001-0.05 μg/ml, alone, read-out: IC50 of paclitaxel, A3 antagonist none
  IC50: 2.5 ng/mL (≈ 2.93 nM)
[4]; Homo sapiens, Panc-1, paclitaxel 0.0001-0.05 μg/ml, alone, read-out: IC50 of paclitaxel, A3 antagonist none
  IC50: 2.9 ng/mL (≈ 3.4 nM)
[4]; [10]
  IC50: 2.7 ± 0.3 ng/mL (≈ 3.16 nM)
